# Assay results taken from PubChem BioAssay (NCI).
#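 Values below derive from 48-hour exposures of cells grown in 96-well plates, with endpoints linearly interpolated between the two concentrations bracketing the appropriate inhibition level. The concentration for 50% growth inhibition is given as GI50. TGI is the concentration that stops growth completely.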
# Legend:
# Assay in all cases: inhibition of tumour cell growth, NCI panel, 48 h
# [1] = tested on: 786-0 renal
# [2] = tested on: A498 renal
# [3] = tested on: A549 NSCLC
# [4] = tested on: ACHN renal
# [5] = tested on: BT-549 breast
# [6] = tested on: CAKI-1 renal
# [7] = tested on: CCRF-CEM leukemia
# [8] = tested on: COLO 205 colon
# [9] = tested on: DU-145 prostate
# [10] = tested on: EKVX NSCLC
# [11] = tested on: HCC-2998 colon
# [12] = tested on: HCT-116 colon
# [13] = tested on: HCT-15 colon
# [14] = tested on: HL-60(TB) leukemia
# [15] = tested on: HOP-62 NSCLC
# [16] = tested on: HOP-92 NSCLC
# [17] = tested on: HS 578T breast
# [18] = tested on: HT29 colon
# [19] = tested on: IGROV1 ovarian
# [20] = tested on: K-562 leukemia
# [21] = tested on: KM12 colon
# [22] = tested on: LOX IMVI melanoma
# [23] = tested on: M14 melanoma
# [24] = tested on: MALME-3M melanoma
# [25] = tested on: MCF7 breast
# [26] = tested on: MDA-MB-231 breast
# [27] = tested on: MDA-MB-435
# [28] = tested on: MOLT-4 leukemia
# [29] = tested on: NCI-H226 lung
# [30] = tested on: NCI-H23 lung
# [31] = tested on: NCI-H460 lung
# [32] = tested on: NCI-H522 lung
# [33] = tested on: NCI/ADR-RES ovarian
# [34] = tested on: OVCAR-3 ovarian
# [35] = tested on: OVCAR-4 ovarian
# [36] = tested on: OVCAR-5 ovarian
# [37] = tested on: OVCAR-8 ovarian
# [38] = tested on: PC-3 prostate
# [39] = tested on: RPMI-8226 leukemia
# [40] = tested on: RXF 393 renal
# [41] = tested on: SF-268 CNS
# [42] = tested on: SF-295 CNS
# [43] = tested on: SF-539 CNS
# [44] = tested on: SK-MEL-2 melanoma
# [45] = tested on: SK-MEL-28 melanoma
# [46] = tested on: SK-MEL-5 melanoma
# [47] = tested on: SK-OV-3 ovarian
# [48] = tested on: SN12C renal
# [49] = tested on: SNB-19 CNS
# [50] = tested on: SNB-75 CNS
# [51] = tested on: SR leukemia
# [52] = tested on: SW-620 colon
# [53] = tested on: T-47D breast
# [54] = tested on: TK-10 renal
# [55] = tested on: U251 CNS
# [56] = tested on: UACC-257 melanoma
# [57] = tested on: UACC-62 melanoma
# [58] = tested on: UO-31 renal
smiles,measurement,setting,value
Cn1ccnc1C(=O)/C=C/c1ccc(CC(=O)Nc2ccc(Br)cc2)cc1,GI50,[1],2.77 µM
same,TGI,[1],5.92 µM
same,GI50,[2],4.35 µM
same,TGI,[2],12.6 µM
same,GI50,[3],4.68 µM
same,TGI,[3],13.2 µM
same,GI50,[4],4.4 µM
same,TGI,[4],> 16.7 µM
same,GI50,[5],2.93 µM
same,TGI,[5],6.43 µM
same,GI50,[6],3.59 µM
same,TGI,[6],11.6 µM
same,GI50,[7],3.04 µM
same,TGI,[7],> 16.7 µM
same,GI50,[8],3.56 µM
same,TGI,[8],8.28 µM
same,GI50,[9],3.93 µM
same,TGI,[9],12.2 µM
same,GI50,[10],2.76 µM
same,TGI,[10],11.7 µM
same,GI50,[11],2.95 µM
same,TGI,[11],5.9 µM
same,GI50,[12],1.56 µM
same,TGI,[12],4.63 µM
same,GI50,[13],2.5 µM
same,TGI,[13],> 16.7 µM
same,GI50,[14],4.58 µM
same,TGI,[14],> 16.7 µM
same,GI50,[15],3.34 µM
same,TGI,[15],7.9 µM
same,GI50,[16],3.15 µM
same,TGI,[16],8.26 µM
same,GI50,[17],7.83 µM
same,TGI,[17],> 16.7 µM
same,GI50,[18],4.05 µM
same,TGI,[18],9.96 µM
same,GI50,[19],2.97 µM
same,TGI,[19],10.6 µM
same,GI50,[20],3.88 µM
same,TGI,[20],> 16.7 µM
same,GI50,[21],2.66 µM
same,TGI,[21],5.51 µM
same,GI50,[22],2.07 µM
same,TGI,[22],4.28 µM
same,GI50,[23],2.63 µM
same,TGI,[23],6.07 µM
same,GI50,[24],4.04 µM
same,TGI,[24],10.8 µM
same,GI50,[25],1.84 µM
same,TGI,[25],> 16.7 µM
same,GI50,[26],4.78 µM
same,TGI,[26],15.6 µM
same,GI50,[27],4.37 µM
same,TGI,[27],14.8 µM
same,GI50,[28],3.69 µM
same,TGI,[28],14.8 µM
same,GI50,[29],4.15 µM
same,TGI,[29],> 16.7 µM
same,GI50,[30],2.75 µM
same,TGI,[30],7.1 µM
same,GI50,[31],3 µM
same,TGI,[31],8.51 µM
same,GI50,[32],3.83 µM
same,TGI,[32],8.25 µM
same,GI50,[33],5.08 µM
same,TGI,[33],> 16.7 µM
same,GI50,[34],4.02 µM
same,TGI,[34],14.4 µM
same,GI50,[35],4.52 µM
same,TGI,[35],> 16.7 µM
same,GI50,[36],2.74 µM
same,TGI,[36],7.38 µM
same,GI50,[37],5.39 µM
same,TGI,[37],> 16.7 µM
same,GI50,[38],2.87 µM
same,TGI,[38],8.25 µM
same,GI50,[39],2.76 µM
same,TGI,[39],8.11 µM
same,GI50,[40],3.12 µM
same,TGI,[40],6.03 µM
same,GI50,[41],3.34 µM
same,TGI,[41],13 µM
same,GI50,[42],3.22 µM
same,TGI,[42],8.89 µM
same,GI50,[43],2.43 µM
same,TGI,[43],4.81 µM
same,GI50,[44],> 16.7 µM
same,TGI,[44],> 16.7 µM
same,GI50,[45],3.32 µM
same,TGI,[45],7.63 µM
same,GI50,[46],3.58 µM
same,TGI,[46],8.25 µM
same,GI50,[47],8.88 µM
same,TGI,[47],> 16.7 µM
same,GI50,[48],3.88 µM
same,TGI,[48],11.1 µM
same,GI50,[49],2.61 µM
same,TGI,[49],5.75 µM
same,GI50,[50],3.05 µM
same,TGI,[50],> 16.7 µM
same,GI50,[51],0.575 µM
same,TGI,[51],> 16.7 µM
same,GI50,[52],4.15 µM
same,TGI,[52],13.4 µM
same,GI50,[53],5.5 µM
same,TGI,[53],> 16.7 µM
same,GI50,[54],6.21 µM
same,TGI,[54],> 16.7 µM
same,GI50,[55],1.97 µM
same,TGI,[55],4.51 µM
same,GI50,[56],15.6 µM
same,TGI,[56],> 16.7 µM
same,GI50,[57],2.8 µM
same,TGI,[57],5.73 µM
same,GI50,[58],2.19 µM
same,TGI,[58],4.39 µM
